Experimental data reported in PubChem BioAssay (NCI).
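Step 1: Grow cells in 96-well plates. Step 2: Expose to compound for 48 hours at 5 concentrations. Step 3: Interpolate endpoints linearly; if unreached, use highest concentration. TGI is the concentration that stops growth completely.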

How the values were obtained:
Assay in all cases: NCI tumour cell line growth inhibition, 48 h
[1] = test system: MOLT-4 leukemia
[2] = test system: OVCAR-4 ovarian
[3] = test system: SF-539 CNS
[4] = test system: MDA-MB-231 breast
[5] = test system: HCC-2998 colon
[6] = test system: HCT-116 colon
[7] = test system: RPMI-8226 leukemia
[8] = test system: NCI/ADR-RES ovarian
[9] = test system: OVCAR-8 ovarian
[10] = test system: U251 CNS
[11] = test system: NCI-H23 lung
[12] = test system: SNB-19 CNS
[13] = test system: OVCAR-3 ovarian
[14] = test system: MALME-3M melanoma
[15] = test system: MDA-MB-435
[16] = test system: TK-10 renal
[17] = test system: RXF 393 renal

In the case of `Cn1c(=O)c2c(nc(N)n2C2OC(CO)C(O)C2O)n(C)c1=O` (stereo unspecified), the TGI [1] is reported as > 100 µM, the TGI [2] is reported as > 100 µM and the TGI [3] is reported as > 100 µM. The TGI [4] was > 100 µM, the TGI [5] was > 100 µM and the TGI [6] was > 100 µM. The TGI [7] was > 100 µM, the TGI [8] was > 100 µM and the TGI [9] was > 100 µM. For the same compound, the TGI [10] was > 100 µM, the TGI [11] was > 100 µM and the TGI [12] was > 100 µM. The TGI [13] was > 100 µM, the TGI [14] was > 100 µM and the TGI [15] was > 100 µM. The TGI [16] was > 100 µM and the TGI [17] was > 100 µM.

For `CCN(CC)CCOC(=O)CCN1CC2CCC(CC2)C1`, the TGI [1] was > 100 µM, the TGI [2] was > 100 µM and the TGI [3] was > 100 µM. The TGI [4] was > 100 µM, the TGI [5] was > 100 µM and the TGI [6] was > 100 µM. For the same compound, the TGI [7] was > 100 µM, the TGI [8] was > 100 µM and the TGI [9] was > 100 µM. For the same compound, the TGI [10] was > 100 µM, the TGI [11] was > 100 µM and the TGI [12] was > 100 µM. The TGI [13] was > 100 µM, the TGI [14] was > 100 µM and the TGI [15] was > 100 µM. The TGI [16] was > 100 µM and the TGI [17] was > 100 µM.

`Nc1ccc(Nc2c3ccccc3nc3ccccc23)cc1` was tested, and the TGI [1] was > 10 µM, the TGI [2] was > 10 µM and the TGI [3] was > 10 µM. For the same compound, the TGI [4] was > 10 µM, the TGI [5] was > 10 µM and the TGI [6] was 9.52 µM. For the same compound, the TGI [7] was > 10 µM, the TGI [8] was > 10 µM and the TGI [9] was > 10 µM. The TGI [10] was > 10 µM, the TGI [11] was > 10 µM and the TGI [12] was > 10 µM. The TGI [13] was > 10 µM, the TGI [14] was 8.96 µM and the TGI [15] was > 10 µM. The TGI [16] was > 10 µM and the TGI [17] was > 10 µM.

With `COC(=O)[C@]12CCC(C)(C)C[C@H]1C1=CC[C@@H]3[C@@]4(C)CC[C@H](OC5OC(CO)C(O)C(O)C5OC5OC(CO)C(O)C(O)C5O)C(C)(C)[C@@H]4CC[C@@]3(C)[C@]1(C)CC2` (stereo partly specified) the TGI [1] was 40.8 µM, the TGI [2] was 15.6 µM and the TGI [4] was 7.2 µM. The TGI [5] was 37.9 µM, the TGI [6] was 18.7 µM and the TGI [7] was 48.3 µM. For the same compound, the TGI [8] was 29.1 µM, the TGI [9] was 34 µM and the TGI [10] was 26.3 µM. It also gave a TGI [11] of 19.6 µM, a TGI [12] of 29.6 µM and a TGI [13] of 22.4 µM. The TGI [14] was 25.2 µM, the TGI [15] was 20.8 µM and the TGI [17] was 19.7 µM.

For `CO[C@@H]1C=C[C@@]23c4cc5c(cc4C(O)N(CC2O)C3C1)OCO5` (stereo partly specified), the TGI [1] was > 100 µM, the TGI [2] was 19.4 µM and the TGI [3] was > 100 µM. The TGI [4] was 21.8 µM, the TGI [6] was 21.3 µM and the TGI [7] was > 100 µM. The TGI [8] was 75.1 µM, the TGI [9] was > 100 µM and the TGI [10] was 16.6 µM. The TGI [11] was 56.1 µM, the TGI [12] was 33.8 µM and the TGI [13] was 58.8 µM. The TGI [14] was > 100 µM, the TGI [15] was 18.2 µM and the TGI [16] was 23 µM. The TGI [17] was 50.3 µM.

With `Cc1cc(N(CCCCl)CCCCl)ccc1C=Nc1cccc(Cl)c1` the TGI [1] was 21.2 µM, the TGI [2] was 26.4 µM and the TGI [4] was 29.3 µM. For the same compound, the TGI [6] was > 100 µM, the TGI [7] was 0.231 µM and the TGI [8] was 33.4 µM. The TGI [9] was 24.3 µM, the TGI [10] was 32.2 µM and the TGI [11] was 27.7 µM. It also gave a TGI [12] of 34.6 µM, a TGI [13] of 33.5 µM and a TGI [14] of 22.8 µM. For the same compound, the TGI [15] was 36.2 µM, the TGI [16] was 27.5 µM and the TGI [17] was 35.5 µM.

With `O=C1Nc2cc([N+](=O)[O-])ccc2C(=O)N2CCC[C@@H]12` the TGI [1] was > 100 µM, the TGI [2] was > 100 µM and the TGI [3] was > 100 µM. The TGI [4] was > 100 µM, the TGI [5] was > 100 µM and the TGI [6] was > 100 µM. For the same compound, the TGI [7] was > 100 µM, the TGI [8] was > 100 µM and the TGI [9] was > 100 µM. The TGI [10] was > 100 µM, the TGI [11] was > 100 µM and the TGI [12] was > 100 µM. For the same compound, the TGI [13] was > 100 µM, the TGI [15] was > 100 µM and the TGI [16] was > 100 µM. For the same compound, the TGI [17] was > 100 µM.

In the case of `COc1ccc2c(c1)CCCN1Cc3cc(OC)c(OC)cc3CC21` (stereo unspecified), the TGI [1] is reported as > 100 µM, the TGI [2] is reported as > 100 µM and the TGI [3] is reported as > 100 µM. For the same compound, the TGI [4] was > 100 µM, the TGI [5] was > 100 µM and the TGI [6] was > 100 µM. The TGI [8] was > 100 µM, the TGI [9] was > 100 µM and the TGI [10] was > 100 µM. The TGI [11] was > 100 µM, the TGI [12] was > 100 µM and the TGI [13] was > 100 µM. For the same compound, the TGI [14] was > 100 µM, the TGI [15] was > 100 µM and the TGI [16] was > 100 µM. The TGI [17] was > 100 µM.

In the case of `O=C(O)Cc1cccc2c1OC(c1ccccc1)C(C(=O)c1ccccc1)C2=O` (stereo unspecified), the TGI [1] is reported as > 100 µM, the TGI [3] is reported as > 100 µM and the TGI [4] is reported as > 100 µM. The TGI [5] was 59.7 µM, the TGI [6] was > 100 µM and the TGI [7] was > 100 µM. The TGI [8] was > 100 µM, the TGI [9] was > 100 µM and the TGI [10] was > 100 µM. The TGI [11] was > 100 µM, the TGI [12] was > 100 µM and the TGI [13] was > 100 µM. The TGI [14] was > 100 µM, the TGI [15] was > 100 µM and the TGI [16] was 79.9 µM. For the same compound, the TGI [17] was > 100 µM.

For `CC(C)(C)CC(C)(C)N=C(N)NO`, the TGI [1] was > 100 µM, the TGI [2] was > 100 µM and the TGI [3] was > 100 µM. The TGI [4] was > 100 µM, the TGI [5] was > 100 µM and the TGI [6] was > 100 µM. The TGI [7] was > 100 µM, the TGI [8] was > 100 µM and the TGI [9] was > 100 µM. For the same compound, the TGI [10] was > 100 µM, the TGI [11] was > 100 µM and the TGI [12] was > 100 µM. The TGI [13] was > 100 µM, the TGI [14] was > 100 µM and the TGI [15] was > 100 µM. The TGI [16] was > 100 µM and the TGI [17] was > 100 µM.

For `COc1ccc(C2CC(c3ccc4ccccc4c3O)=NN2C(C)=O)cc1OC` (stereo unspecified), the TGI [1] was > 100 µM, the TGI [2] was > 100 µM and the TGI [3] was > 100 µM. For the same compound, the TGI [4] was > 100 µM, the TGI [5] was > 100 µM and the TGI [6] was > 100 µM. For the same compound, the TGI [7] was > 100 µM, the TGI [8] was > 100 µM and the TGI [9] was > 100 µM. The TGI [10] was > 100 µM, the TGI [11] was > 100 µM and the TGI [13] was > 100 µM. The TGI [14] was > 100 µM, the TGI [15] was > 100 µM and the TGI [16] was > 100 µM. The TGI [17] was > 100 µM.

With `CN(C)CCCNc1ccnc2cc([N+](=O)[O-])ccc12` the TGI [1] was > 100 µM, the TGI [2] was 12.8 µM and the TGI [3] was 31.9 µM. The TGI [4] was 28.6 µM, the TGI [6] was 23.7 µM and the TGI [7] was > 100 µM. It also gave a TGI [8] of 50 µM, a TGI [9] of 46.1 µM and a TGI [10] of 57.7 µM. It also gave a TGI [11] of 25.4 µM, a TGI [13] of 29.9 µM and a TGI [14] of 11.4 µM. For the same compound, the TGI [15] was 31.3 µM, the TGI [16] was 65.4 µM and the TGI [17] was 26.3 µM.

With `CCOC(CI)O[C@@H]1C=C[C@H](OC(C)=O)C1` (stereo partly specified) the TGI [1] was > 100 µM, the TGI [2] was > 100 µM and the TGI [3] was > 100 µM. For the same compound, the TGI [4] was > 100 µM, the TGI [5] was > 100 µM and the TGI [6] was > 100 µM. The TGI [7] was > 100 µM, the TGI [8] was > 100 µM and the TGI [9] was > 100 µM. The TGI [10] was > 100 µM, the TGI [11] was > 100 µM and the TGI [12] was > 100 µM. The TGI [13] was > 100 µM, the TGI [14] was > 100 µM and the TGI [15] was > 100 µM. For the same compound, the TGI [17] was > 100 µM.

Work on `O=C(NCCNCCNCCNC(=O)c1cc(-c2ccccc2)nc2ccccc12)c1cc(-c2ccccc2)nc2ccccc12` yielded a TGI [1] of 4.22 µM, a TGI [2] of 13.8 µM and a TGI [3] of 3.85 µM. It also gave a TGI [4] of 7.57 µM, a TGI [5] of 3.1 µM and a TGI [6] of 3.39 µM. The TGI [7] was 6.51 µM, the TGI [8] was 29.3 µM and the TGI [9] was 3.85 µM. The TGI [10] was 3.3 µM, the TGI [11] was 13.1 µM and the TGI [12] was 8.93 µM. For the same compound, the TGI [13] was 8.11 µM, the TGI [14] was 3.31 µM and the TGI [15] was 3.23 µM. The TGI [16] was 11.4 µM and the TGI [17] was 4.34 µM.
